Values of other authors, collected in PMC6606825 (Journal of Ginseng Research, 2018).

Experiments:
[1] = PK data in animals and healthy individuals; cited from earlier work
[2] = system: cytochrome P450 enzymes (CYPs); conditions: in vitro; ref unpublished; cited from earlier work
P-gp = conditions: in vitro and in situ; cited from earlier work

Compound: CC(C)=CCC[C@](C)(O[C@@H]1O[C@H](CO)[C@@H](O)[C@H](O)[C@H]1O)[C@H]1CC[C@]2(C)[C@@H]1[C@H](O)C[C@@H]1[C@@]3(C)CC[C@H](O)C(C)(C)[C@@H]3CC[C@]12C [Ginsenoside compound K, 20-O-beta-D-glucopyranosyl-20(S)-protopanaxadiol]
- oral bioavailability [1]: poor oral bioavailability
- effects of CYPs on CK [2]: minimal effects
- P-gp inhibition (P-gp): inhibit P-gp

Compound: CC(C)=CCC[C@](C)(O)[C@H]1CC[C@]2(C)[C@@H]1[C@H](O)C[C@@H]1[C@@]3(C)CC[C@H](O)C(C)(C)[C@@H]3CC[C@]12C [20(S)-PPD, 20(S)-protopanaxadiol]
- P-gp inhibition (P-gp): inhibit P-gp
